Read-outs that look alike come from different tables or passages of the source.
How the values were obtained:
[1] = test system: PCA response; assay: Passive Cutaneous Anaphylaxis (rat PCA); format: in vivo; conditions: iv, i.v. just before ovalbumin challenge, male Wistar rats
Protocol: Serum containing heat labile homocytotropic antibody was raised in rats to crystallized ovalbumin XOA by the method of Mota (I. Mota, Immunology, 7, 681 (1964)) using Bordettela pertussis vaccine as adjuvant.
Passive cutaneous anaphylaxis (PCA) was carried out by a method based on that of Ovary and Bier (A. Ovary and O. G. Bier, Proc. Soc. Exp. Biol. Med 81, 584, (1952)) as modified by Goose and Blair.
Male Wistar rats of 250-300 g were given 0.1 ml of each of six twofold serial dilutions of pooled antiserum in 0.9% saline injected intradermally into separate sites on their shaved backs. Later (72 hr) the animals were challenged by intravenous injection of 0.3 ml of a 1% solution of ovalbumin in an isotonic solution of saline buffered with 0.5M, pH 7.2, Sorenson Buffer (PBS), mixed with 0.2 ml of a 5% solution of Pontamine Sky Blue (6BX C.I. 24410, Raymond A. Lamb, London) in isotonic saline. The rats were killed after 20 min and the diameter of the blue wheals at the antibody injection sites was measured on the outer surface of the skin. The starting dilution of the serum was adjusted so that there was no response, after challenge, at the injection site of the highest dilution and a maximum response at the lowest dilutions. Typically six twofold serial dilutions of the serum from 1/4 to 1/128 were used.
Compounds were tested for their ability to reduce the diameter of the wheels at those intradermal sites which in control animals gave less than maximum response. Each dose of the compound was administered intravenously to six rats in isotonic saline, adjusted to pH7 with sodium bicarbonate if necessary (2ml/kg body weight) just before intravenous challenge with ovalbumin. Control groups of six animals were given the same volume of carrier fluid at the same time.
The results were calculated as follows. % inhibition of PCA=100 (1 - a/b) where a=the sum of the diameters of the wheals produced in the test animal at the sites of antibody dilutions as used in control groups and b=the mean sum of the diameters of the wheals produced in the control group of animals at those antibody sites where at least five out of six of the animals gave less than maximum response. A typical variation in the control group of animals was SEN±6%.
The dose of the compound required to inhibit the PCA response by 50% was obtained from the log dose-response curve.

[2] = test system: slow reacting substance of anaphylaxis (SRS-A); assay: SRS-A antagonism on isolated guinea pig ileum; design: species or system guinea pig ileum (SRS-A from rat); conditions: rat SRS-A
Source text: The compounds have been evaluated as direct antagonists of slow reacting substance of anaphylaxis (SRS-A) by assay using the isolated guinea pig ileum.
SRS-A rat was obtained from the peritoneal cavity of the rat after passive peritoneal anaphylaxis by a method based on that of R. P. Orange, D. J. Stechschulte and K. F. Austen, J. Immunology, 105 1087 (1970) as described by B. A. Spicer, J. W. Ross and H. Smith, Clin. exp. Immunol. 1975, 21, 419. The sensitizing serum containing reaginic antibody was produced in rats as described by B. A. Spicer, et. al. ibid.
2 ml of a 1 in 5 dilution of the sensitizing serum was injected by the peritoneal route into recipient rats and after 2 hours, 5 ml of tyrode solution containing 0.4 mg/ml ovalbumin (Sigma Grade III) and 50 μg/ml heparin was injected by the same route. Five minutes after challenge the rats were stunned and bled and the peritoneal fluids collected into polycarbonate tubes in ice. After centrifugation at 150 g for 5 minutes the supernatants were combined, heated in a boiling water bath for 5 minutes, cooled and stored at -20° C. The combined peritioneal fluids contained SRS-A and were used in the antagonism studies.
The SRS-A assays were carried out on isolated strips of guinea pig ileum in tyrode solution containing atropine 5 × 10^-7 M and mepyramine 10^-6 M as described by W. E. Brocklehurst, J. Physiology, 151, 416 (1960).
The activity of the antagonists was determined by their ability to reduce submaximal responses induced by SRS-A. The antagonists were added to a 4 ml bath in 0.1 ml volumes in aqueous solution half a minute before the addition of SRS-A and were present during induced contraction. Two or three concentrations of antagonists were used and the percentage inhibition of the SRS-A response plotted against the bath concentration of antagonist. The line of best fit was drawn and the concentration to cause 50% inhibition IC50 read graphically.

[3] = read-out: Rat PCA: Dose given i.v. to effect a 50% inhibition of the PCA response
[4] = as first table, unit inferred, isolated guinea pig ileum, read-out: SRS-A antagonism on Guinea Pig Ileum: Approximate concentration to give inhibition of a than maximal response to SRS-A
[5] = second results table, read-out: Rat PCA: Dose given i.v. to effect a 50% inhibition of PCA response
[6] = isolated guinea pig ileum strips, tyrode with atropine and mepyramine, 50% inhibition per method, read-out: SRS-A antagonism on Guinea Pig Ileum: Approximate concentration to give inhibition of a than maximal response to SRS-A
[7] = second results table, unit inferred, isolated guinea pig ileum, read-out: SRS-A antagonism on Guinea Pig ileum: Approximate concentration to give 50% inhibition of a less than maximal response to SRS-A

CCCc1c(OCCOc2ccc3c(O)c([N+](=O)[O-])c(=O)oc3c2)ccc(C(C)=O)c1O [Example 127, 7-(2-[4-Acetyl-3-hydroxy-2-n-propylphenoxy]ethoxy)-4-hydroxy-3-nitrocoumarin] was tested, and the ED50 [1, 3] was ~2 mg/kg.

CCCc1cc(F)ccc1OCC(O)COc1ccc2c(O)c([N+](=O)[O-])c(=O)oc2c1 (stereo not drawn) [Example 164, 7-(3-[4-Fluoro-2-hydroxypropoxy)-4-hydroxy-3-nitro-coumarin] showed an ED50 [1, 3] of 1 mg/kg and an IC50 [2, 4] of 100 nM.

For CCCc1c(OCC(O)COc2ccc3c(O)c([N+](=O)[O-])c(=O)oc3c2)ccc(C(=O)CC)c1O (stereo not drawn) [Example 149], the ED50 [1, 3] was 2 mg/kg.

Compound CCCc1c(O)c(C(C)=O)cc([N+](=O)[O-])c1OCCOc1ccc2c(O)c([N+](=O)[O-])c(=O)oc2c1 [Example 165, 7-[2-(4-Acetyl-3-hydroxy-6-nitro-2-n-propylphenoxy)ethoxy]-4-hydroxy-3-nitrocoumarin] has an ED50 [1, 3] of 1 mg/kg.

With O=C1c2ccc(OCCCc3ccccc3)cc2C(=O)C1[N+](=O)[O-] (stereo not drawn) [Example 183, 2-Nitro-5-(3-phenylpropoxy)indan-1,3-dione] the ED50 [1, 5] was < 1 mg/kg.

With CCCc1c(OCC(O)COc2ccc3c(O)c([N+](=O)[O-])c(=O)oc3c2C)ccc(C(C)=O)c1O (stereo not drawn) [Example 147, 7-(3-[4-Acetyl-3-hydroxy-2-n-propyl-phenoxy]-2-hydroxy-propoxy)-4-hydroxy-8-methyl-3-nitro-coumarin] the ED50 [1, 3] was < 2 mg/kg and the IC50 [2, 4] was 10 nM.

With CCCc1c(O)c(C(C)=O)cc([N+](=O)[O-])c1OCC(O)COc1ccc2c(O)c([N+](=O)[O-])c(=O)oc2c1C (stereo not drawn) [Example 166, 7-[3-(4-Acetyl-3-hydroxy-6-nitro-2-n-propylphenoxy)-2-hydroxypropoxy]-4-hydroxy-8-methyl-3-nitrocoumarin] the ED50 [1, 3] was < 1 mg/kg and the IC50 [2, 4] was 100 nM.

CCCc1c(OCC(O)COc2ccc3c(O)c([N+](=O)[O-])c(=O)oc3c2CCC)ccc(C(C)=O)c1O (stereo not drawn) [Example 148, 7-(3-[4-Acetyl-3-hydroxy-2-n-propyl-phenoxy]-2-hydroxy-propoxy)-4-hydroxy-3-nitro-8-n-propyl-coumarin] was tested, and the ED50 [1, 3] was < 1 mg/kg and the IC50 [2, 6] was 100 nM.

Compound Cc1ccccc1OCCCOc1ccc2c(O)c([N+](=O)[O-])c(=O)oc2c1 [Example 155, 4-Hydroxy-7-(3-[2-methylphenoxy]propoxy)-3-nitrocoumarin] has an ED50 [1, 3] of 1 to 2 mg/kg and an IC50 [2, 6] of 100 nM.

Work on O=c1oc2cc(OCCCCCCOc3ccccc3)ccc2c(O)c1[N+](=O)[O-] [Example 154, 4-Hydroxy-3-nitro-7-(6-phenoxyhexoxy) coumarin] yielded an ED50 [1, 3] of 1 to 2 mg/kg and an IC50 [2, 6] of 10000 nM.

With CCCc1cc(C(C)=O)ccc1OCC(O)COc1ccc2c(O)c([N+](=O)[O-])c(=O)oc2c1 (stereo not drawn) [Example 142, 7-(3-[4-Acetyl-2-n-propylphenoxy]-2-hydroxypropoxy)-4-hydroxy-3-nitrocoumarin] the ED50 [1, 3] was < 1 mg/kg.

In the case of O=C1c2ccc(OCCCOc3ccccc3)cc2C(=O)C1[N+](=O)[O-] (stereo not drawn) [Example 182, 2-Nitro-5-(3-phenoxypropoxy)indan-1,3-dione], the ED50 [1, 5] is reported as < 1 mg/kg and the IC50 [2, 7] is reported as 100 nM.

In the case of N#Cc1c(O)c2ccc(OCCCOc3ccccc3)cc2oc1=O [Example 204, 3-Cyano-4-hydroxy-7-(3-phenoxypropoxy) coumarin], the ED50 [1, 5] is reported as 2 mg/kg and the IC50 [2, 7] is reported as 1000 nM.

With CCc1cc(C(C)=O)c(O)cc1OCC(O)COc1ccc2c(O)c([N+](=O)[O-])c(=O)oc2c1 (stereo not drawn) [Example 145, 7-(3-[4-Acetyl-2-ethyl-5-hydroxy-phenoxy]-2-hydroxy-propoxy)-4-hydroxy-3-nitrocoumarin] the ED50 [1, 3] was 2 mg/kg.

Cc1cc(C)c(C)c(OCCCOc2ccc3c(c2)C(=O)C([N+](=O)[O-])C3=O)c1 (stereo not drawn) [Example 184, 2-Nitro-5-[3-(2,3,5-trimethylphenoxy)propoxy]indan-1,3-dione] was tested, and the ED50 [1, 5] was 1 mg/kg and the IC50 [2, 7] was 1000 nM.

With O=c1oc2cc(OCCc3ccc(F)cc3)ccc2c(O)c1[N+](=O)[O-] [Example 117] the ED50 [1, 3] was 1 mg/kg.

For N#CC1C(=O)c2ccc(OCCCOc3ccccc3)cc2C1=O (stereo not drawn) [Example 188, 2-Cyano-5-(3-phenoxypropoxy)indan-1,3-dione], the ED50 [1, 5] was > 2 mg/kg and the IC50 [2, 7] was 1000 nM.
